US20250388605A1, “HETEROBIFUNCTIONAL COMPOUNDS AND METHODS OF TREATING DISEASE” (Halda Therapeutics OpCo, Inc., priority 2022, published 2025)

Columns and labels:
VCaP cells = assay: Cellular growth inhibition assay for VCaP cells, CellTiter-Glo; assay type: cell-based, human; settings: 72 hours
Summary of the method: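 GI50 values come from four-parameter curve fits of luminescence data normalized to a zero baseline. Compound, in medium with 0.5% DMSO, was added one day after plating and left for 72 h before CellTiter-Glo 2.0 addition.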

[1] = tested on: T-Rex 293 cell line SC3 cells having increased expression of androgen receptor protein due to exposure to doxycycline; assay: Cellular growth inhibition, T-Rex 293 SC3 cells with doxycycline (increased androgen receptor expression), CellTiter-Glo; assay type: cell-based; settings: T-Rex 293 SC3 cells with 10 ng/mL doxycycline (increased androgen receptor expression), 72 hours, CellTiter-Glo 2.0
Summary of the method: (§1)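 Doxycycline (10 ng/mL) was either included or omitted to toggle wild-type androgen receptor expression in SC3 cells, a T-Rex 293 clone, grown in stripped-serum, phenol red-free medium. After 72 hours with compound, viable cells were quantified by CellTiter-Glo 2.0.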

T47D cells = assay: Cellular Growth Inhibition Assay for T47D Cells (CellTiter-Glo); assay type: cell-based, human; settings: 72 hours
Summary of the method: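 GI50 values derive from four-parameter regression of CellTiter-Glo 2.0 luminescence, using zero luminescence as baseline. Human breast cancer T47D cells (3000/well; DMEM, 10% FBS, 0.2 units/mL insulin) were exposed for 72 h to compound dilutions at 0.5% DMSO, with dosing starting 24 h after seeding.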

[2] = tested on: T-Rex 293 cell line SC3 cells lacking increased expression of androgen receptor protein; assay: Cellular growth inhibition, T-Rex 293 SC3 cells without doxycycline (no increased androgen receptor expression), CellTiter-Glo; assay type: cell-based; settings: T-Rex 293 SC3 cells not exposed to doxycycline (no increased androgen receptor expression), 72 hours
Summary of the method: as §1

SMILES	GI50 (VCaP cells) [nM]	GI50 [1] [nM]	GI50 (T47D cells) [nM]	GI50 [2] [nM]	GI50 (VCaP cells; Homo sapiens) [nM]	GI50 (T47D cells; Homo sapiens) [nM]
Cn1cc(-c2cc(C(C)(C)O)ccc2Oc2ccc(CCC3CCN(c4ncc(C(=O)N[C@H]5C(C)(C)[C@H](Oc6ccc(C#N)c(Cl)c6)C5(C)C)cn4)CC3)nc2)c2cc[nH]c2c1=O [Compound I-302]	< 500	< 500	500 to 1500	500 to 1500		
Cn1cc(-c2cc(C(C)(C)O)ccc2Oc2ccc(OC[C@@H]3CCCN(c4cnc(C(=O)N[C@H]5C(C)(C)[C@H](Oc6ccc(C#N)c(Cl)c6)C5(C)C)cn4)C3)cc2)c2cc[nH]c2c1=O [Compound I-340]	> 3000	> 3000	< 500	> 3000		
CC(C)c1ccc(Oc2cccc(CCCN3CCN(c4ncc(C(=O)NC5C(C)(C)C(Oc6ccc(C#N)c(Cl)c6)C5(C)C)cn4)CC3)c2)c(-c2cn(C)c(=O)c3[nH]ccc23)c1 (stereo not shown) [Compound I-125, N-[3-(3-chloro-4-cyano-phenoxy)-2,2,4,4-tetramethyl-cyclobutyl]-2-[4-[3-[3-[4-isopropyl-2-(6-methyl-7-oxo-1H-pyrrolo[2,3-c]pyridin-4-yl)phenoxy]phenyl]propyl]piperazin-1-yl]pyrimidine-5-carboxamide]		< 500		> 3000	< 500	1500 to 3000
Cn1cc(-c2cc3c(cc2Oc2ccc(N4CC(CC5CN(c6ncc(C(=O)N[C@H]7C(C)(C)[C@H](Oc8ccc(C#N)c(Cl)c8)C7(C)C)cn6)C5)C4)cc2)CCC3(C)O)c2cc[nH]c2c1=O (stereo partly shown) [Compound I-329, N-[3-(3-chloro-4-cyano-phenoxy)-2,2,4,4-tetramethyl-cyclobutyl]-2-[3-[[1-[4-[1-hydroxy-1-methyl-6-(6-methyl-7-oxo-1H-pyrrolo[2,3-c]pyridin-4-yl)indan-5-yl]oxyphenyl]azetidin-3-yl]methyl]azetidin-1-yl]pyrimidine-5-carboxamide]		< 500		> 3000	< 500	> 3000
CC(C)c1ccc(Oc2cccc(N3CC(N4CCN(c5ncc(C(=O)N[C@H]6C(C)(C)[C@H](Oc7ccc(C#N)c(Cl)c7)C6(C)C)cn5)CC4)C3)c2)c(-c2cn(C)c(=O)c3[nH]ccc23)c1 [Compound I-122, N-[3-(3-chloro-4-cyano-phenoxy)-2,2,4,4-tetramethyl-cyclobutyl]-2-[4-[1-[3-[4-isopropyl-2-(6-methyl-7-oxo-1H-pyrrolo[2,3-c]pyridin-4-yl)phenoxy]phenyl]azetidin-3-yl]piperazin-1-yl]pyrimidine-5-carboxamide]		< 500		> 3000	> 3000	500 to 1500
Cn1cc(-c2cc(C(C)(C)O)ccc2OCC2(C(=O)N3CC(OC4CCN(c5ncc(C(=O)N[C@H]6C(C)(C)[C@H](Oc7ccc(C#N)c(Cl)c7)C6(C)C)cn5)CC4)C3)CC2)c2cc[nH]c2c1=O [Compound I-267]	< 500	< 500	500 to 1500	500 to 1500		
Cn1cc(-c2ccccc2Oc2cccc(OCCN3CCN(c4ncc(C(=O)N[C@H]5C(C)(C)[C@H](Oc6ccc(C#N)c(Cl)c6)C5(C)C)cn4)CC3)c2F)c2cc[nH]c2c1=O [Compound I-115]	< 500	< 500	500 to 1500	< 500		
CC(C)N(CCOC1CCN(c2ncc(C(=O)N[C@H]3C(C)(C)[C@H](Oc4ccc(C#N)c(Cl)c4)C3(C)C)cn2)CC1)c1cccc(Oc2ccc(C(C)(C)O)cc2-c2cn(C)c(=O)c3[nH]ccc23)c1F [Compound I-209]	< 500	< 500	< 500	< 500		
Cn1cc(-c2cc(C(C)(C)O)ccc2Oc2ccc(F)c(OCCN3CC4(C3)CN(c3ncc(C(=O)N[C@H]5C(C)(C)[C@H](Oc6ccc(C#N)c(Cl)c6)C5(C)C)cn3)C4)c2F)c2cc[nH]c2c1=O [Compound I-239]	< 500	< 500	< 500	< 500		
CCS(=O)(=O)c1ccc(Oc2ccc(CN3CCC4(CCN(c5ncc(C(=O)N[C@H]6C(C)(C)[C@H](Oc7ccc(C#N)c(Cl)c7)C6(C)C)cn5)C4)C3)c(F)c2)c(-c2cn(C)c(=O)c3[nH]ccc23)c1 (stereo partly shown) [Compound I-272]		< 500		< 500	< 500	< 500
CCS(=O)(=O)Nc1ccc(Oc2cccc(C3CC(N4CCN(c5ncc(C(=O)N[C@H]6C(C)(C)[C@H](Oc7ccc(C#N)c(Cl)c7)C6(C)C)cn5)CC4)C3)c2)c(-c2cn(C)c(=O)c3[nH]ccc23)c1 (stereo partly shown) [Compound I-180]		< 500		> 3000	< 500	< 500
Cn1cc(-c2cc(C(C)(C)O)ccc2Oc2ccc(N3CC(CC4CN(C5CCC(C(=O)N[C@H]6C(C)(C)[C@H](Oc7ccc(C#N)c(Cl)c7)C6(C)C)CC5)C4)C3)cc2)c2cc[nH]c2c1=O (stereo partly shown) [Compound I-313]		500 to 1500		500 to 1500	< 500	< 500
CN(C1CCN(c2ncc(C(=O)N[C@H]3C(C)(C)[C@H](Oc4ccc(C#N)c(Cl)c4)C3(C)C)cn2)CC1)C1CN(c2cccc(Oc3ccc(C(C)(C)O)cc3-c3cn(C)c(=O)c4[nH]ccc34)c2F)C1 [Compound I-230]	< 500	< 500	< 500	500 to 1500		
Cn1cc(-c2cc(C(C)(C)O)ccc2OC2CC3(C2)CN(CCC2CCN(c4ncc(C(=O)NC5C(C)(C)C(Oc6ccc(C#N)c(Cl)c6)C5(C)C)cn4)CC2)C3)c2cc[nH]c2c1=O (stereo not shown) [Compound I-281, N-[3-(3-chloro-4-cyano-phenoxy)-2,2,4,4-tetramethyl-cyclobutyl]-2-[4-[2-[6-[4-(1-hydroxy-1-methyl-ethyl)-2-(6-methyl-7-oxo-1H-pyrrolo[2,3-c]pyridin-4-yl)phenoxy]-2-azaspiro[3.3]heptan-2-yl]ethyl]-1-piperidyl]pyrimidine-5-carboxamide]		< 500		500 to 1500	< 500	< 500
Cn1cc(-c2cc(C(C)(C)O)ccc2Oc2cccc(OC3CCC4(CC3)CCN(c3ncc(C(=O)N[C@H]5C(C)(C)[C@H](Oc6ccc(C#N)c(Cl)c6)C5(C)C)cn3)CC4)c2)c2cc[nH]c2c1=O [Compound I-314]	< 500	< 500	500 to 1500	> 3000		
CC(=O)Nc1ccc(Oc2cccc(OCCOC3CCN(c4ncc(C(=O)N[C@H]5C(C)(C)[C@H](Oc6ccc(C#N)c(Cl)c6)C5(C)C)cn4)CC3)c2)c(-c2cn(C)c(=O)c3[nH]ccc23)c1 [Compound I-57, 2-(4-(2-(3-(4-acetamido-2-(6-methyl-7-oxo-6,7-dihydro-1H-pyrrolo [2,3-c]pyridin-4-yl)phenoxy)phenoxy)ethoxy)piperidin-1-yl)-N-((1r, 3r)-3-(3-chloro-4-cyanophenoxy)-2,2,4,4-tetramethylcyclobutyl)pyrimidine-5-carboxamide]		< 500		500 to 1500	< 500	< 500
Cn1cc(-c2cc(C(C)(C)O)ccc2Oc2ccc(OC3CC4(C3)CC3(CCN(c5ncc(C(=O)N[C@H]6C(C)(C)[C@H](Oc7ccc(C#N)c(Cl)c7)C6(C)C)cn5)CC3)C4)cc2)c2cc[nH]c2c1=O [Compound I-326]		< 500		> 3000	< 500	< 500
Cn1cc(-c2ccccc2Oc2cccc(CCCN3CCN(c4ncc(C(=O)NC5C(C)(C)C(Oc6ccc(C#N)c(Cl)c6)C5(C)C)cn4)CC3)c2)c2cc[nH]c2c1=O (stereo not shown) [Compound I-134, N-[3-(3-chloro-4-cyano-phenoxy)-2,2,4,4-tetramethyl-cyclobutyl]-2-[4-[3-[3-[2-(6-methyl-7-oxo-1H-pyrrolo[2,3-c]pyridin-4-yl)phenoxy]phenyl]propyl]piperazin-1-yl]pyrimidine-5-carboxamide]		< 500		500 to 1500	< 500	500 to 1500
CCS(=O)(=O)c1ccc(OC(CCCCOC2CCN(c3ncc(C(=O)N[C@H]4C(C)(C)[C@H](Oc5ccc(C#N)c(Cl)c5)C4(C)C)cn3)CC2)C2CC2)c(-c2cn(C)c(=O)c3[nH]ccc23)c1 (stereo partly shown) [Compound I-234]	< 500	< 500	< 500	< 500		
CCS(=O)(=O)c1ccc(Oc2ccc(CN3CC4(C3)CN(c3ncc(C(=O)N[C@H]5C(C)(C)[C@H](Oc6ccc(C#N)c(Cl)c6)C5(C)C)cn3)C4)c(F)c2)c(-c2cn(C)c(=O)c3[nH]ccc23)c1 [Compound I-271]		< 500		< 500	< 500	< 500
CCS(=O)(=O)Nc1ccc(Oc2ccc(OCC3CCN(c4ncc(C(=O)N[C@H]5C(C)(C)[C@H](Oc6ccc(Cl)c(C#N)c6)C5(C)C)cn4)CC3)cc2)c(-c2cn(C)c(=O)c3[nH]ccc23)c1 [Compound I-277]	< 500	< 500	< 500	< 500		
Cn1cc(-c2cc(C(C)(C)O)ccc2OC(CCCCCN2CCN(c3ncc(C(=O)NC4C(C)(C)C(Oc5ccc(C#N)c(Cl)c5)C4(C)C)cn3)CC2)C2CC2)c2cc[nH]c2c1=O (stereo not shown) [Compound I-243, N-[3-(3-chloro-4-cyano-phenoxy)-2,2,4,4-tetramethyl-cyclobutyl]-2-[4-[6-cyclopropyl-6-[4-(1-hydroxy-1-methyl-ethyl)-2-(6-methyl-7-oxo-1H-pyrrolo[2,3-c]pyridin-4-yl)phenoxy]hexyl]piperazin-1-yl]pyrimidine-5-carboxamide]		< 500		500 to 1500	< 500	500 to 1500
